Measured values as given in paper PMC6058673, “Comparison of hyaluronic acid-based micelles and polyethylene glycol-based micelles on reversal of multidrug resistance and enhanced anticancer efficacy in vitro and in vivo” (Drug Delivery, 2018).
“And” between values parts separate entries of the source, which are not always exact repeats. Equal values may be shown once.

Tests used:
4T1 tumor-bearing mice [1] = experiment: In vivo antitumor efficacy, body weight and survival; set-up: species or system BALB/c mice; details: 4T1-bearing mice, i.v. 10 mg/kg DOX
Description: The antitumor efficacy and safety in vivo were evaluated using 4T1 tumor-bearing mice. Briefly, 1 × 10^6 4T1 cells were subcutaneously injected into the right axilla of the female BALB/c mice. […] Body weights and tumor volumes (V = ab^2/2, where a was major axis and b was minor axis measured by slide caliper) were measured every two days after administration. At the end of the experiment, mice were sacrificed, and then the tumors were excised, weighted and photographed.

4T1 tumor-bearing mice [2] = experiment: Serum CK, CKMB, LDH and AST (organ toxicity) by ELISA kit; type: in vivo, BALB/c mice; details: 4T1-bearing mice, end of experiment; DOX-Sol vs saline, others vs DOX-Sol
Description: The toxicity of DOX formulations in vivo were evaluated by enzyme-linked immunosorbent assay (ELISA) kit. At the end of the experiment, the blood of each mouse was extracted by eyeballs and the serum was separated. Then, the activities of creatine kinase (CK), creatine kinase MB (CKMB), lactate dehydrogenase (LDH) and aspartate transaminase (AST) in serum were evaluated to investigate the organ toxicity.

MCF-7/Adr cells = experiment: MTT cytotoxicity assay and MDR reversal in multidrug-resistant MCF-7/Adr cells; type: cell-based; details: for resistant index (RI): MCF-7/Adr vs MCF-7; for IC50: Homo sapiens, NCI/ADR-RES, MCF-7/Adr, DOX concentration
Description: The sensitive MCF-7 and multidrug-resistant MCF-7/Adr cells were obtained from Nanjing Kaiji Biotech. Ltd. Co. (Jiangsu, China). Cells were cultured in RPMI-1640 medium containing 10% (v/v) FBS and 1% penicillin–streptomycin at 37 °C with 5% CO2. Additionally, MCF-7/Adr cells were incubated in medium with 1 μg/mL DOX.
The cytotoxicity of various formulations against MCF-7 and MCF-7/Adr cells was assessed by MTT assay. Briefly, MCF-7 and MCF-7/Adr cells were seeded in 96-well plates at a density of 5 × 10^4 cells/well/0.1 mL 1640 culture medium and cultured for 24 h. Then, the cells were treated with DOX-Sol, DOX + Cur, HA-PMs, TPGS2k-PMs and HA/TPGS2k-PMs with multiple concentrations of DOX for 48 and 72 h, respectively. The cells incubated with medium only were utilized as control. At time interval, 20 μL MTT (5 mg/mL) was added and incubated for another 4 h. After that, the medium of each well was discarded and added 200 μL DMSO. The absorbance of each well was measured at 570 nm using a microplate reader. Half-maximal inhibitory concentration (IC50), the resistant index (RI) and reversal factor (RF) were calculated and used to evaluate MDR reversal effects by micelles(Ling et al., [2010]; Wang et al., [2012]).

[3] = In vivo pharmacokinetics after intravenous injection; details: rat, i.v., DOX 5 mg/kg and Cur 5 mg/kg, analyte DOX
Description: Male Sprague–Dawley rats were randomly assigned to five groups (five rats per group). DOX-Sol, DOX + Cur, TPGS2k-PMs, HA-PMs and HA/TPGS2k-PMs were injected intravenously with at the dose of 5 mg/kg DOX and 5 mg/kg Cur, respectively. About 300 μL of blood samples were collected from the orbital venous plexus and immediately centrifuged to obtain the plasma fraction. Plasma samples were extracted through methanol protein precipitation method before analyzed by LC–MS/MS system.

4T1-bearing Balb/C mice = experiment: In vivo biodistribution in tumor-bearing mice; details: 4T1-bearing mice, 2 h after i.v. 10 mg DOX/kg and 10 mg Cur/kg
Description: After 2 h administration, the mice were sacrificed, and the tumor, heart, liver, lung, and kidney were excised, weighed, homogenized in 0.5 mL methanol, centrifuged and analyzed by LC-MS/MS. Meanwhile, for qualitative analysis, the tumors were frozen in cryoembedding media (OCT) and sectioned at 20 μm. The sections were fixed with 4% paraformaldehyde for 10 min, stained for nuclei with DAPI, and observed by CLSM.

For `COc1cccc2c1C(=O)c1c(O)c3c(c(O)c1C2=O)C[C@@](O)(C(=O)CO)C[C@@H]3O[C@H]1C[C@H](N)[C@H](O)[C@H](C)O1` [DOX-Sol, Doxorubicin], which “death of mice during treatment” value (4T1 tumor-bearing mice [1]; 10 mice per group) is on record?
The value was “five mice suddenly died after nine days treatment”.

And the body weight change (4T1 tumor-bearing mice [1])?
The body weight change was “markedly decreased”.

And the “values of CKMB, CK, LDH and AST in serum” value (4T1 tumor-bearing mice [2])?
The value was “significantly higher than those in saline-treated groups”.

What about the “resistant index (RI)” value (MCF-7/Adr cells; 48h, listed as DOX) of the same molecule?
Its value is 142 and 142.01.

What about the “resistant index (RI)” value (MCF-7/Adr cells; 72h) of the same molecule?
Its value is 89.82.

And the IC50 (MCF-7/Adr cells; 48h)?
Its IC50 is 106 µg/mL.

And the IC50 (MCF-7/Adr cells; 72h)?
Its IC50 is 45.8 µg/mL.

What about the “V of DOX” value [3] of the same molecule?
Its value is 0.03 ± 0.02 L/kg.

What about the “DOX accumulation in tumor” value (4T1-bearing Balb/C mice) of the same molecule?
Its value is “low DOX accumulation”.
